These results are taken from patent US9763980B2, “Combined chemical modification of sphingosine-1-phosphate (S1P) and CXCR4 signalling pathways for hematopoietic stem cell (HSC) mobilization and engraftment” (Children's Medical Center Corporation, priority 2011, dated 2017).

“Also recorded” adds a separate entry of the source.

Data set [1] concerns CHT hematopoiesis (HSPC markers cmyb and runx1 in the CHT). Put plainly: Zebrafish embryo chemical treatment and dose matrices, whole mount in situ hybridization of cmyb/runx1 in the CHT. It is filed as in vivo. Conditions: for cmyb/runx1 expression in the CHT (CHT hematopoiesis): agent alone, treatment from 48 hpf, 72 hpf embryos; for rescue of the effect of 25 μM W146 on cmyb/runx1 expression: addition of agent to W146; for Experimental data: concentration of S1PR1 modulating agent in the combination effective at increasing HSC engraftment / Experimental data: concentration of S1PR1 modulating agent in the combination effective at increasing HSC mobilization: combination with AMD3100; for mobilization of HSC from the bone marrow in vivo: combination with AMD3100 in specific ratios. As for the experimental part: Transgenic zebrafish embryos were intercrossed and selected using epifluorescence (e.g. Runx1+23:EGFP, cmyb:EGFP^4, cd41:EGFP^2, kdrl:DsRed2^31). Live imaging was performed using a spinning disk confocal microscope with an incubated chamber. Zebrafish embryos were mounted and imaged as previously described. Live mouse fetal liver explants were prepared as previously described for aorta-gonad-mesonephros tissue^10. Image processing was done primarily with Fluorender^32 and ImageJ, which included the MTrackJ plugin^33 for manual cell tracking. For chemical screening and dose matrices, stage-matched AB embryos were dechorionated and arrayed 8-10/well in 96-well mesh-bottomed plates (Millipore). Embryos were treated from 48-72 hpf by placement directly in 96-well receiver plates containing small molecules diluted in E3 media+1% DMSO. Embryos were checked for circulation before fixation. Whole mount in situ hybridization was performed as previously described^34, with the addition of 0.2% glutaraldehyde to 4% formaldehyde at the post-fixation step. […] Lineage tracing was performed by injecting cd41:EGFP positive embryos with caged fluorescein conjugated to dextran (MW 10000). Embryos were uncaged in the DA at 28 hpf with a UV laser. Embryos were raised to 46 hpf in E3 media or E3+S1PR1 antagonist W146 (10 μM), then fixed for antibody staining to detect double positive cd41:EGFP and uncaged FITC HSPCs. Receptor fusion cDNAs (25 pg) were injected into one-cell embryos with Tol2 RNA (15 pg). Flow cytometry was performed using a LSR II and cells were sorted using a FACSAria (BD Biosciences). Flow cytometry data was analyzed using FACSDiva and FlowJo software.
Having followed newly born aortic HSPCs to the intermediate tissue, the inventors assessed the signaling pathways involved in embryonic migration. The inventors designed a chemical genetic screen to introduce small molecules to the zebrafish embryo from the peak window of HSPC migration to the CHT (48-72 hpf).

The test system of data set [2] is HSPCs in the CHT. Kind of data set: Lineage tracing of HSPCs from DA to CHT (cd41:EGFP and uncaged FITC). Conditions: W146 10 μM, versus control. It is filed as in vivo, zebrafish. As for the experimental part: Transgenic zebrafish embryos were intercrossed and selected using epifluorescence (e.g. Runx1+23:EGFP, cmyb:EGFP^4, cd41:EGFP^2, kdrl:DsRed2^31). Live imaging was performed using a spinning disk confocal microscope with an incubated chamber. Zebrafish embryos were mounted and imaged as previously described. Live mouse fetal liver explants were prepared as previously described for aorta-gonad-mesonephros tissue^10. Image processing was done primarily with Fluorender^32 and ImageJ, which included the MTrackJ plugin^33 for manual cell tracking. For chemical screening and dose matrices, stage-matched AB embryos were dechorionated and arrayed 8-10/well in 96-well mesh-bottomed plates (Millipore). Embryos were treated from 48-72 hpf by placement directly in 96-well receiver plates containing small molecules diluted in E3 media+1% DMSO. Embryos were checked for circulation before fixation. Whole mount in situ hybridization was performed as previously described^34, with the addition of 0.2% glutaraldehyde to 4% formaldehyde at the post-fixation step. Morpholino (s1pr1/edg1 ATG-MO^23 obtained from Gene Tools, LLC) was injected into one-cell Tu or cmyb:EGFP; kdrl:DsRed2 transgenic embryos at a 1 ng dose (higher doses stop circulation). […] Flow cytometry data was analyzed using FACSDiva and FlowJo software. […]

Data set [3] concerns HSPCs in the CHT. Put plainly: Time-lapse live imaging and cell tracking in the CHT (Runx1+23:EGFP; kdrl:DsRed2). It is filed as in vivo, zebrafish. As to the method:
Transgenic zebrafish embryos were intercrossed and selected using epifluorescence (e.g. Runx1+23:EGFP, cmyb:EGFP^4, cd41:EGFP^2, kdrl:DsRed2^31). Live imaging was performed using a spinning disk confocal microscope with an incubated chamber. Zebrafish embryos were mounted and imaged as previously described. Live mouse fetal liver explants were prepared as previously described for aorta-gonad-mesonephros tissue^10. Image processing was done primarily with Fluorender^32 and ImageJ, which included the MTrackJ plugin^33 for manual cell tracking. For chemical screening and dose matrices, stage-matched AB embryos were dechorionated and arrayed 8-10/well in 96-well mesh-bottomed plates (Millipore). Embryos were treated from 48-72 hpf by placement directly in 96-well receiver plates containing small molecules diluted in E3 media+1% DMSO. Embryos were checked for circulation before fixation. Whole mount in situ hybridization was performed as previously described^34, with the addition of 0.2% glutaraldehyde to 4% formaldehyde at the post-fixation step. Morpholino (s1pr1/edg1 ATG-MO^23 obtained from Gene Tools, LLC) was injected into one-cell Tu or cmyb:EGFP; kdrl:DsRed2 transgenic embryos at a 1 ng dose (higher doses stop circulation). Lineage tracing was performed by injecting cd41:EGFP positive embryos with caged fluorescein conjugated to dextran (MW 10000). Embryos were uncaged in the DA at 28 hpf with a UV laser. Embryos were raised to 46 hpf in E3 media or E3+S1PR1 antagonist W146 (10 μM), then fixed for antibody staining to detect double positive cd41:EGFP and uncaged FITC HSPCs. Receptor fusion cDNAs (25 pg) were injected into one-cell embryos with Tol2 RNA (15 pg). Flow cytometry was performed using a LSR II and cells were sorted using a FACSAria (BD Biosciences). Flow cytometry data was analyzed using FACSDiva and FlowJo software.
Time-lapse live imaging. Staged transgenic zebrafish embryos were selected and mounted for imaging in 1% LMP agarose with E3 media and tricaine as described. Pregnant C57/BL6 mice were dissected at E11 (vaginal plug observation was E0). Embryos were removed from the uterus in PBS with 10% FCS and penicillin-streptomycin. Embryos were staged as E11 by counting ˜42 somite pairs. Fetal livers were removed from the embryo and treated as described by Boisset and colleagues (“protocol b”)^10. Zebrafish embryos and fetal liver explants were imaged in MatTek glass bottom dishes (No. 1.5 cover slip). […] Quantification of 12 hours of CHT tracking data per time-lapse movie allowed us to define engrafted cells as stationary (i.e. a speed of <0.31 microns/minute) and resident in the CHT for at least 3 hours, otherwise they were scored as migratory and transient. […]

For data set [4], the system named is autoimmune myocarditis. Conditions: rat model for autoimmune myocarditis; cited from earlier work.
The target in data set [5] is T1, endothelial S1P1 receptors (Mus musculus, UniProt O08530).
T1 construct: host or cells: vascular endothelium (as cited)
Conditions: type I diabetic vascular endothelium; cited from earlier work.

Data set [6] addresses T1, endothelial S1P1 receptors. Conditions: cited from earlier work.
For data set [7] the following is noted: in vivo; cited from earlier work.
The mark [8] stands for this setting: addition of AUY954, 54 hpf embryos.
[9] abbreviates: dose matrices, agent combined with AMD3100.
The mark [10] stands for this setting: W146 10 μM, 38-50 hpf, versus control.

T1 sequence (O08530 whole entry): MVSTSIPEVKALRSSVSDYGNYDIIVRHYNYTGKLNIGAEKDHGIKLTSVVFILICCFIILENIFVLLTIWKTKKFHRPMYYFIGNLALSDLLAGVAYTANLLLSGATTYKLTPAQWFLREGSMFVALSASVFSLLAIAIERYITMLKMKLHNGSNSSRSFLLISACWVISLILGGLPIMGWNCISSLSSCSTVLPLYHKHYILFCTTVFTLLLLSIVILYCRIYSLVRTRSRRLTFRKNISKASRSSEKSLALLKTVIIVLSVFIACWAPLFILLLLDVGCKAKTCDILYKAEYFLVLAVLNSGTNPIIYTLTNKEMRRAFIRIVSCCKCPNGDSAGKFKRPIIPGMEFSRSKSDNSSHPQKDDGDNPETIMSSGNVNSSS

Consider `c1cc(CN2CCCNCCNCCCNCC2)ccc1CN1CCCNCCNCCCNCC1` [AMD3100, 1,1′-[1,4-Phenylenebis(methylene)]bis[1,4,8,11-tetraazacyclotetradecane]], for which, in data set [1] (AMD3100 25 μM, 54 hpf embryos), the “cmyb/runx1 expression in the CHT” value is given as “greatly decreases”. The “cmyb/runx1 expression in the CHT (CHT hematopoiesis)” value in data set [1] is on record as “dose-dependently reduces; also recorded: decreases CHT hematopoiesis”. The CHT hematopoiesis entry in data set [1] (each agent alone at the doses of the effective FTY720/AMD3100 combination) is “no effect”.
`O=C(O)CCNCc1ccc2sc(-c3ccc(-c4ccccc4)c(C(F)(F)F)c3)cc2c1` [AUY954, 3-[[2-[4-phenyl-3-(trifluoromethyl)phenyl]-1-benzothiophen-5-yl]methylamino]propanoic acid]: the “CHT score (greatest engraftment in dose matrix)” value in data set [1] (10 μM AMD3100 and 12.5 μM AUY945) is listed as “+2”. In data set [1] (setting [8]), the “rescue of the cmyb/runx1 decrease caused by 25 μM AMD3100” value is reported as “partially rescued” and the “rescue of the effect of 25 μM SKI-2” value is recorded as “rescued”. In data set [1] (54 hpf embryos), the “rescue of the effect of 25 μM W146 on cmyb/runx1 expression” value is given as “rescued”. In addition, in data set [1], the “Experimental data: concentration of S1PR1 modulating agent in the combination effective at increasing HSC engraftment” value was 12.5 µM. The CHT hematopoiesis entry in data set [1] (setting [9]) is listed as “synergistic increases”.
Regarding `CCCCCCCCCCCCC/C=C/[C@@H](O)[C@@H](N)COP(=O)(O)O` [Compound S1P, sphingosine-1-phosphate], the “rescue of the effect of 25 μM W146 on cmyb/runx1 expression” value in data set [1] (54 hpf embryos) is reported as “rescued”. For the same molecule, in data set [1], the “cmyb/runx1 expression in the CHT (CHT hematopoiesis)” value is recorded as “altered the migration pattern of HSPCs; also recorded: alters cmyb/runx1 expression pattern”. The CHT hematopoiesis result in data set [1] (setting [9]) is “synergistic increases”.
As to `CCCCCCc1cccc(NC(=O)[C@H](N)CCP(=O)(O)O)c1` [Compound W146, (R)-3-Amino-4-(3-hexylphenylamino)-4-oxobutylphosphonic acid], the “CHT score in dose matrix” value in data set [1] (5 μM AMD3100 and 10 μM W146) was “greatest CHT score”. For the same molecule, the “cmyb/runx1 expression in the CHT” value in data set [1] (W146 25 μM, 54 hpf embryos) was “decreases”. In data set [1], the “Experimental data: concentration of S1PR1 modulating agent in the combination effective at increasing HSC engraftment” value is 10 µM, the “Experimental data: concentration of S1PR1 modulating agent in the combination effective at increasing HSC mobilization” value is 5 μM W146 and the “mobilization of HSC from the bone marrow in vivo” value is on record as “improves mobilization”. The “number of lineage traced HSPCs in the CHT” value in data set [2] (embryos raised to 46 hpf) is recorded as “increased”. The “morphology of lineage traced HSPCs in the CHT” value in data set [2] was “morphology that differed from the control; also recorded: morphological changes”. In data set [3] (setting [10]), the “number of engrafted cells” value is listed as “decreased”, the “percentage of migratory cells” value was “increased” and the “tracked cells in the CHT” value is on record as “increased”. The CHT colonization result in data set [3] (embryos in the antagonist during imaging) is listed as “interferes with CHT colonization”.
As for `NC(CO)(CO)CCc1ccc(Sc2cccc(OCc3ccccc3)c2)cc1Cl` [KRP-203], in data set [4], the therapeutic efficacy entry is given as “therapeutic efficacy”.
Regarding `FC(F)(F)c1cccc(-c2noc(-c3cc(-c4ccccc4)c(C(F)(F)F)s3)n2)c1` [SEW2871, 5-[4-phenyl-5-(trifluoromethyl)-2-thienyl]-3-[3-(trifluoromethyl)phenyl]-1,2,4-oxadiazole], the “CHT score (greatest engraftment in dose matrix)” value in data set [1] (10 μM AMD3100 and 10 μM SEW2871) is “+2”. In addition, in data set [1], the “Experimental data: concentration of S1PR1 modulating agent in the combination effective at increasing HSC engraftment” value came to 10 µM, the “Experimental data: concentration of S1PR1 modulating agent in the combination effective at increasing HSC mobilization” value worked out at 15 µM and the “mobilization of HSC from the bone marrow in vivo” value is “improves mobilization”. Further, in data set [1] (setting [9]), the CHT hematopoiesis entry is given as “synergistic increases”. The proinflammatory monocyte/endothelial interactions entry in data set [5] is on record as “prevents”. In data set [6], the “protection of the vasculature against TNFα-mediated monocyte/endothelial interactions” value is listed as “protects”. Further, the bradycardia entry in data set [7] is listed as “does not induce bradycardia”.
As for `Oc1ccc(Nc2nc(-c3ccc(Cl)cc3)cs2)cc1` [SKI-2], the “effect of SKI-2 in CHT hematopoiesis assay” value in data set [1] (SKI-2 25 μM, 54 hpf embryos) was “depleting endogenous levels of S1P”. In addition, in data set [1] (SKI-2 alone), the “effect on improving engraftment (CHT)” value is reported as “little effect”.
